# Assay results from patent US10369134B2, “Nonracemic mixtures and uses thereof” (Sunovion Pharmaceuticals Inc., priority 2017, dated 2019).
# Read-outs that look alike come from different tables or passages of the source.
# Legend:
# [1] = cited from earlier work
# rat = experiment: Forced Swim test; type: in vivo
# Procedure: The Forced Swim test (FST) is an indicator of the antidepressant-like activity of a test compound. The rat will swim before “giving up” and becoming immobile. A compound with antidepressant-like activity will decrease the time the rat is immobile.
# The animals (n=90) were divided into five groups. […] In the training session, each animal was gently placed into the plastic cylinder containing 5.8 L of water set at 25±1° C. Fifteen minutes after the beginning of the training session, the animal was removed from the water. The dosing solutions were administered 15 minutes after finishing of the training.
# The swim test was performed for 5 minutes in the same manner as the training session. In the swim test, the behavior of each animal was horizontally recorded using a video camera. After the swim test, animals were immediately sacrificed by inhalation of carbon dioxide.
# The swim movies were handled in a blind manner to ensure that the person who measured the immobility time had no information on the treatment. An animal was judged to be immobile whenever it remained floating in the water without moving its body or forepaws except for the slight movement to maintain its posture. The total time for which the animal remained immobile was defined as the immobility time. An observer blinded to the doses measured the immobility times. The immobility time of each animal was measured to one decimal place and rounded to a whole number. Immobility time was expressed in units of seconds. In each series the means of immobility time were calculated and rounded to a whole number using. The mean and standard error (SE) for each group were calculated using the data obtained from three experimental series and rounded to a whole number. All results are represented as the mean±SE.
# The data of imipramine were analyzed using t-test with a two-sided significance level of 5% (p<0.05).
# [2] = Solubility of crystal forms; type: physicochemical; details: thermodynamic from solid
# Text: In various embodiments, the compositions of the present inventions use new crystalline forms of enantiomeric amisulpride, Form A and Form A′. […] It is to be understood that upon dissolution of the compound it is no longer of a crystalline form, thus one of ordinary skill in the art will understand that the specific rotation in Table 7 refers to that of the non-crystalline compound.
# [3] = Plasma (S)-amisulpride levels during the PET study; type: in vivo; details: human, single oral solution 25-200 mg
# Procedure: Plasma samples were collected throughout the course of the PET scan session and were analyzed for (S)-amisulpride levels.
# [4] = Dynamic vapor sorption (DVS) water sorption isotherm; type: physicochemical; details: for maximum mass change in water sorption isotherms: 25° C., scanned over 0 to 95% relative humidity; for Change Mass: FIG. 8D
# Text: In various embodiments, the hygroscopicity of crystal forms of racemic amisulpride, enantiomeric amisulpride, and enantiomeric amisulpride solvates are characterized by dynamic vapor sorption (DVS). DVS is a gravimetric technique that measures how much of a solvent is absorbed by a sample by varying the vapor concentration surrounding the sample (e.g., relative humidity) and measuring the change in mass. In the present application, DVS is used to generate water sorption isotherms, which represent the equilibrium amount of vapor sorbed as a function of steady state relative vapor pressure at a constant temperature.
# [5] = 0.05 M acetate buffer, aqueous buffer, solution pH 4.5, read-out: Solubility, 0.05 M Acetate Buffer
# [6] = acetone/MtBE 1:4, organic solvent or mixture, read-out: Solubility, Acetone/MtBE 1:4
# [7] = acetone/MtBE 1:9, organic solvent or mixture, read-out: Solubility, Acetone/MtBE 1:9
# [8] = ethyl acetate, organic solvent or mixture, read-out: Solubility, Ethyl Acetate
# [9] = simulated gastric fluid (no enzyme), pH 1.1, simulated gastric fluid, pH adjusted to 1.1 (Form A), 1.2 (Form A′), read-out: Solubility, Simulated Gastric Fluid (no enzyme)
# [10] = simulated intestinal fluid (no enzyme), pH 6.7, fassgf or other biorelevant, pH adjusted to 6.7 (Form A), 6.9 (Form A′), read-out: Solubility, Simulated Intestinal Fluid (no enzyme)
# [11] = water, pH 10.2, water, read-out: Solubility, Water
compound,measurement,setting,value
"CCN1CCCC1CNC(=O)c1cc(S(=O)(=O)CC)c(N)cc1OC (racemic) [racemic amisulpride, 4-amino-N-[(1-ethylpyrrolidin-2-yl)methyl]-5-ethylsulfonyl-2-methoxy-benzamide]",terminal plasma half-life,"[1]; biphasic elimination, Coukell et al. 1996",approximately 12 hours
"CN(C)CCCN1c2ccccc2CCc2ccccc21 [Imipramine, imipramine]",immobility time,"rat; 10 mg/kg i.p. at 24, 5 and 1 h before swim test, mean ± SE, vehicle 168±12",105 ± 15 s
same,shortening of immobility time,"rat; 10 mg/kg i.p., in all series, vs vehicle",more than 20%
"CCN1CCC[C@@H]1CNC(=O)c1cc(S(=O)(=O)CC)c(N)cc1OC [(R)-amisulpride Form A, R-4-Amino-N-[(1-ethyl-2-pyrrolidinyl)methyl]-5-(ethylsulfonyl)-2-methoxybenzamide]",solubility,[2]; [5],> 100000 µg/mL
same,solubility,[2]; [6],8000 µg/mL
same,solubility,[2]; [7],2000 µg/mL
same,solubility,[2]; [8],3900 µg/mL
same,solubility,[2]; [9],> 100000 µg/mL
same,solubility,[2]; [10],> 100000 µg/mL
same,solubility,[2]; [11],2000 µg/mL
"CCN1CCC[C@H]1CNC(=O)c1cc(S(=O)(=O)CC)c(N)cc1OC [(S)-amisulpride, S-4-Amino-N-[(1-ethyl-2-pyrrolidinyl)methyl]-5-(ethylsulfonyl)-2-methoxybenzamide]",time frame in which plasma concentrations peaked,[3],approximately 3 hour
"CCN1CCC[C@H]1CNC(=O)c1cc(S(=O)(=O)CC)c(N)cc1OC [(S)-amisulpride Form A′, S-4-Amino-N-[(1-ethyl-2-pyrrolidinyl)methyl]-5-(ethylsulfonyl)-2-methoxybenzamide]",maximum mass change in water sorption isotherms,[4],0.35%
same,Change Mass,"[4]; 19.077 mg, relative humidity 0 %, rising steps",0.00 wt %
same,Change Mass,"[4]; relative humidity 1 %, falling steps",−0.01 wt %
same,Change Mass,"[4]; relative humidity 10 %, falling steps",0.01 wt %
same,Change Mass,"[4]; relative humidity 10 %, rising steps",0.03 wt %
same,Change Mass,"[4]; relative humidity 20 %, falling steps",0.03 wt %
same,Change Mass,"[4]; relative humidity 20 %, rising steps",0.05 wt %
same,Change Mass,"[4]; relative humidity 30 %, falling steps",0.05 wt %
same,Change Mass,"[4]; relative humidity 30 %, rising steps",0.07 wt %
same,Change Mass,"[4]; relative humidity 40 %, falling steps",0.07 wt %
same,Change Mass,"[4]; relative humidity 40 %, rising steps",0.09 wt %
same,Change Mass,"[4]; relative humidity 50 %, falling steps",0.08 wt %
same,Change Mass,"[4]; relative humidity 50 %, rising steps",0.11 wt %
same,Change Mass,"[4]; relative humidity 60 %, falling steps",0.11 wt %
same,Change Mass,"[4]; relative humidity 60 %, rising steps",0.13 wt %
same,Change Mass,"[4]; relative humidity 70 %, falling steps",0.14 wt %
same,Change Mass,"[4]; relative humidity 70 %, rising steps",0.16 wt %
same,Change Mass,"[4]; relative humidity 75 %, falling steps",0.16 wt %
same,Change Mass,"[4]; relative humidity 75 %, rising steps",0.18 wt %
same,Change Mass,"[4]; relative humidity 80 %, falling steps",0.17 wt %
same,Change Mass,"[4]; relative humidity 80 %, rising steps",0.19 wt %
same,Change Mass,"[4]; relative humidity 90 %, falling steps",0.28 wt %
same,Change Mass,"[4]; relative humidity 90 %, rising steps",0.25 wt %
same,Change Mass,"[4]; relative humidity 95 %, first step at 95 %",0.34 wt %
same,Change Mass,"[4]; relative humidity 95 %, second step at 95 %",0.35 wt %
same,solubility,[2]; [5],> 100000 µg/mL
same,solubility,[2]; [6],8000 µg/mL
same,solubility,[2]; [7],2000 µg/mL
same,solubility,[2]; [8],3900 µg/mL
same,solubility,[2]; [9],> 100000 µg/mL
same,solubility,[2]; [10],> 100000 µg/mL
same,solubility,[2]; [11],2000 µg/mL
OCCOCCN1CCN(C2=Nc3ccccc3Sc3ccccc32)CC1 [quetiapine],elimination half-life,[1]; literature (Delaney and Nemeroff 2001),about 7 hours
"CCN1CCCC1CNC(=O)c1cc(S(=O)(=O)CC)c(N)cc1OC.O=C(O)C(O)C(O)C(=O)O [(S)-amisulpride D-tartrate, reference compound]",maximum mass change in water sorption isotherms,[4],52±9%
